From patent US8741896B2, “Pyrazolopyrimidine derivatives” (Merck Patent GmbH, priority 2009, dated 2014)

Columns and labels:
PI3Kα = PI3Kα (Homo sapiens, UniProt P42336); assay: PI3 kinase inhibition bioassay (PI3Kα); format: biochemical
PI3Kβ = PI3Kβ (Homo sapiens, UniProt P42338); assay: PI3 kinase inhibition bioassay (PI3Kβ); format: biochemical
PI3Kγ = PI3Kγ (Homo sapiens, UniProt P48736); assay: PI3 kinase inhibition bioassay (PI3Kγ); format: biochemical
PI3Kδ = PI3Kδ (Homo sapiens, UniProt O00329); assay: PI3 kinase inhibition bioassay (PI3Kδ); format: biochemical
Sequence of PI3Kδ (O00329 whole entry, species assumed): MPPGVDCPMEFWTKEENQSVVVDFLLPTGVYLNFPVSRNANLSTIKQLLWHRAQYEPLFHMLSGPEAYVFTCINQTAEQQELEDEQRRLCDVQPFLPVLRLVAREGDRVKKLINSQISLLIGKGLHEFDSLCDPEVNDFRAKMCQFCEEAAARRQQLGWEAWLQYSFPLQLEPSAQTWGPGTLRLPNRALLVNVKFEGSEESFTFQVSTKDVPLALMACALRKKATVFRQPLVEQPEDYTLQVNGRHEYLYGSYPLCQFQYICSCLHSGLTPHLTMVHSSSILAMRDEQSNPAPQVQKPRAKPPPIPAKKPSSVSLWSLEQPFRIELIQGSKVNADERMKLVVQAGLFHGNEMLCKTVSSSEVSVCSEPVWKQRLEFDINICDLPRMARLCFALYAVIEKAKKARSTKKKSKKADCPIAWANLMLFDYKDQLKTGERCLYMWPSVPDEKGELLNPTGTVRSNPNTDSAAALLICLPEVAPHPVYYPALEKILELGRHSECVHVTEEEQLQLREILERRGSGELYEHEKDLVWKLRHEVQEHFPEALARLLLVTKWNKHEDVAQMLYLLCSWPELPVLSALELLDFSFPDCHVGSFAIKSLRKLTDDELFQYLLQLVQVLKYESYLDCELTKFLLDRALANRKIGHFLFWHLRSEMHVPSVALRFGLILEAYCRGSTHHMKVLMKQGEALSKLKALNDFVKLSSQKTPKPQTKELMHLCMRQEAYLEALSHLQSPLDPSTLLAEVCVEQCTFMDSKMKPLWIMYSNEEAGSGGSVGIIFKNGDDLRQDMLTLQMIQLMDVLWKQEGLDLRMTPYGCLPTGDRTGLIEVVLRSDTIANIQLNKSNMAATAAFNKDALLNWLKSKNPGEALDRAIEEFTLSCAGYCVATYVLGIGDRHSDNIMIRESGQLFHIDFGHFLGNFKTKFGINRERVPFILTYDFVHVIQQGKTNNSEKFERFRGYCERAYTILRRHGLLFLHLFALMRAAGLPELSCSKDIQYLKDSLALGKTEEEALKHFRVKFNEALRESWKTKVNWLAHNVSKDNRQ
Sequence of PI3Kδ (P27986 whole entry partner, species assumed): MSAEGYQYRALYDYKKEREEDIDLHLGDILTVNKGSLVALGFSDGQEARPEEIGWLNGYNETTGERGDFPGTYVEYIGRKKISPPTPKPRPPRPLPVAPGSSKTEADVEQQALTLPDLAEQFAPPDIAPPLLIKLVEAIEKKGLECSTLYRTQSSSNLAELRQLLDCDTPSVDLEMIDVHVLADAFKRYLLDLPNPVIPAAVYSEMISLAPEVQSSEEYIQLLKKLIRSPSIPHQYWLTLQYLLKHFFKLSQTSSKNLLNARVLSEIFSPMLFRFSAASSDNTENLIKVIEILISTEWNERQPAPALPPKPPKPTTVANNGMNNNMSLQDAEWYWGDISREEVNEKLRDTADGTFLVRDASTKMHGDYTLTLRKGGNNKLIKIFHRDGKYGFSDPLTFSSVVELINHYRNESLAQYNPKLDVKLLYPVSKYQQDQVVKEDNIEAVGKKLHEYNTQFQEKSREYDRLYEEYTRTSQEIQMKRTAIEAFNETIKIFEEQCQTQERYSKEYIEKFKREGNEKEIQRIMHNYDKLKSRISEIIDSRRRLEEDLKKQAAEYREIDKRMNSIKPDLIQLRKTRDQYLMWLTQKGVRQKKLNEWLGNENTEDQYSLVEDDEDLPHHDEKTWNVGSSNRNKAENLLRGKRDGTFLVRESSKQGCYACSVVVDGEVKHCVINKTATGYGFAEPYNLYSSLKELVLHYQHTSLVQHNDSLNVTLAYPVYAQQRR

CK2 protein kinase = CK2 protein kinase (Homo sapiens, UniProt P68400); settings: cited from earlier work

Sequence of PI3Kγ (P48736 whole entry, species assumed): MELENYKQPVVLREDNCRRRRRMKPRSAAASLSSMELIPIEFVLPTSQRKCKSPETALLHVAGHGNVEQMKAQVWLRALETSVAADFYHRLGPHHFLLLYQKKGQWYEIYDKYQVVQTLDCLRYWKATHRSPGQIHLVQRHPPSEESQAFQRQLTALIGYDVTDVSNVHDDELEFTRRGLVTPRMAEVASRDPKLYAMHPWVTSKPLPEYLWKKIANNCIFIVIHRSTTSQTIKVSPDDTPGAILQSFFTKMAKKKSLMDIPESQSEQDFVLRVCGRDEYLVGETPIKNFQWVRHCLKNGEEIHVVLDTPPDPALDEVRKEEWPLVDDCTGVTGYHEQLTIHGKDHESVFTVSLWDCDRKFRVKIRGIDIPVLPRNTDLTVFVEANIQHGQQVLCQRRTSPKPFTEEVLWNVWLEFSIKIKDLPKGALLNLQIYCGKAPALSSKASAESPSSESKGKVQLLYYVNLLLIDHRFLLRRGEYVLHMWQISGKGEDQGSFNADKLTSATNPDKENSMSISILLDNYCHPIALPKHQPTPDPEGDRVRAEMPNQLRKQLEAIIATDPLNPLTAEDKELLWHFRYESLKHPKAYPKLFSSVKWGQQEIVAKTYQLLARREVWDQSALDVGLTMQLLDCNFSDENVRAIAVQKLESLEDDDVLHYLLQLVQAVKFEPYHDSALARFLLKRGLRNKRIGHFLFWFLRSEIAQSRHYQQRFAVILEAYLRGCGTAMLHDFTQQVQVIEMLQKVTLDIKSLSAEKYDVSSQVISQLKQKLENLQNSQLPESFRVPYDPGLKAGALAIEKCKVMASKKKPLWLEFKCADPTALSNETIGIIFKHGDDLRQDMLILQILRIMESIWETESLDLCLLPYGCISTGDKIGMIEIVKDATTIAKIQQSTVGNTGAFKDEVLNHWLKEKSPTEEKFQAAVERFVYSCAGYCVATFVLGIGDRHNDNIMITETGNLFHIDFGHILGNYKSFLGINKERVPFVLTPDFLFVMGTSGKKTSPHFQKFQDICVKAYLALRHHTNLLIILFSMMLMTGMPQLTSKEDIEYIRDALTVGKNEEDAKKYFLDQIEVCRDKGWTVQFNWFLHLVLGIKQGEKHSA
Sequence of PI3Kβ (P42338 whole entry, species assumed): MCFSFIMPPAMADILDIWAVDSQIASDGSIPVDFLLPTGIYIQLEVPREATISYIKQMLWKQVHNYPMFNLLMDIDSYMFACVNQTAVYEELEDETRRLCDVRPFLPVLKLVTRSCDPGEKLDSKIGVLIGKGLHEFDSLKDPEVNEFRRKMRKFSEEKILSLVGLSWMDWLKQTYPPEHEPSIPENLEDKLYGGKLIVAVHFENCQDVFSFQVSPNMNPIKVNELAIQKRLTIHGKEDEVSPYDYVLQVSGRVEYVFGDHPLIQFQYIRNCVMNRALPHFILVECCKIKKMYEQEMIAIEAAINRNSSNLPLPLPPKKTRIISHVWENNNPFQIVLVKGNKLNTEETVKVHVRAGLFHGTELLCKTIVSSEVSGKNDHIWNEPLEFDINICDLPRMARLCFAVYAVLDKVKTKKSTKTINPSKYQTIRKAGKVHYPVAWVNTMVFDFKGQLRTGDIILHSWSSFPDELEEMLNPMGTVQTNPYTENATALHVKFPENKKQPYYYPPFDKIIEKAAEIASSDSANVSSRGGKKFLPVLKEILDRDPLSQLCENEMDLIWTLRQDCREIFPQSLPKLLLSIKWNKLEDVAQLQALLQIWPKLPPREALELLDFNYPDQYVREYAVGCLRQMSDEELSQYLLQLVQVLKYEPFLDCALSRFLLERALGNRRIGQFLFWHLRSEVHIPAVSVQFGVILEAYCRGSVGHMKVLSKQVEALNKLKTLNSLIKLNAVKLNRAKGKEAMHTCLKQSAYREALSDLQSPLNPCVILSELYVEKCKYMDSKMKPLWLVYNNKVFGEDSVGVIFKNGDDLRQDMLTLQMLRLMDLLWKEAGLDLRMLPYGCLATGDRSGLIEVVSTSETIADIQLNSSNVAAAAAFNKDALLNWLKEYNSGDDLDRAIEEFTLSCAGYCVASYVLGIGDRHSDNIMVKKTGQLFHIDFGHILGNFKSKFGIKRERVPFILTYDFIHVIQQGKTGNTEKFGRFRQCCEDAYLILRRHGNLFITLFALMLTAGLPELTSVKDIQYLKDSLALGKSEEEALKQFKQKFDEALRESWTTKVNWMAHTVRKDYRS
Sequence of PI3Kβ (P27986 whole entry partner, species assumed): as the sequence (P27986 whole entry partner, species assumed) above
Sequence of PI3Kα (P42336 whole entry, species assumed): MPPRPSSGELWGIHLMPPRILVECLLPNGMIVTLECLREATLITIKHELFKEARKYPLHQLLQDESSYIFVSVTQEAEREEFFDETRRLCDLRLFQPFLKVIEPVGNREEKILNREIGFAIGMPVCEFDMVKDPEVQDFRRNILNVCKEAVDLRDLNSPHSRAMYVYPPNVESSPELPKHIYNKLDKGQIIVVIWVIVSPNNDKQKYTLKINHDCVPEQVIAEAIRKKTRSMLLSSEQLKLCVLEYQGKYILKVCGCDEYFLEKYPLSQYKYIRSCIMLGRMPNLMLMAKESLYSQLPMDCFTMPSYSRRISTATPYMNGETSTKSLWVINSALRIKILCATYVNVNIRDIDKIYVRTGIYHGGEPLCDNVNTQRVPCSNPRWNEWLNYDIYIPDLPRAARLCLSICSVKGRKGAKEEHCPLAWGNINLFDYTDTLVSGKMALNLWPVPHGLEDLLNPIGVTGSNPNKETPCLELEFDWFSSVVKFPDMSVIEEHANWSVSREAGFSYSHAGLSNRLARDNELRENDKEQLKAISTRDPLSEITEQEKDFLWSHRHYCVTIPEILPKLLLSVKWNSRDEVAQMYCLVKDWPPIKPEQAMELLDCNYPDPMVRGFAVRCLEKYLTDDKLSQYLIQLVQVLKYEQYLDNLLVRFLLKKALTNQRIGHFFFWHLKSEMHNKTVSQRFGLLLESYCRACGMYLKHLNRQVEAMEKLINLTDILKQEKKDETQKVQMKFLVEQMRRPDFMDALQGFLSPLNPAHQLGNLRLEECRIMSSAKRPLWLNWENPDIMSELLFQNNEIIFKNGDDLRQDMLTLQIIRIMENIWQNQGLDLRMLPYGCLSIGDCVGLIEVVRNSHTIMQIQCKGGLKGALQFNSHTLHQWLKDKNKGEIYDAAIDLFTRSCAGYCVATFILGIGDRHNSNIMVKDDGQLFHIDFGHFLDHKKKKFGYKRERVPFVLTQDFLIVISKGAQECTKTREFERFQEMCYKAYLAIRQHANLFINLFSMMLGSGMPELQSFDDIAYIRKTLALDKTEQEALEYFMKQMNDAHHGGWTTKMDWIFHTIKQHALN
Sequence of PI3Kα (P27986 whole entry partner, species assumed): as the sequence (P27986 whole entry partner, species assumed) above

| IC50 (PI3Kα) [µM] | IC50 (PI3Kβ) [µM] | IC50 (PI3Kγ) [µM] | IC50 (PI3Kδ) [µM] | Structure (SMILES) | IC50 (CK2 protein kinase) [µM] |
| --- | --- | --- | --- | --- | --- |
| 0.1 to 10 | 0.1 to 10 | 0.1 to 10 | 0.1 to 10 | Nc1ncc(-c2nc(N3CCOCC3)nc3c2cnn3CC(=O)N2CCCC2)cn1 [Compound A228] | – |
| 0.1 to 10 | 0.1 to 10 | 0.1 to 10 | 0.1 to 10 | Nc1ncc(-c2nc(N3CCOCC3)nc3c2cnn3CC(=O)N2CCOCC2)cn1 [Compound A229] | – |
| 0.1 to 10 | 0.1 to 10 | 0.1 to 10 | 0.1 to 10 | Cn1ncc2c(-c3cnc(N)nc3)nc(N3CCOCC3)nc21 [Compound A225, 5-(1-methyl-6-morpholin-4-yl-1H-pyrazolo[3,4-d]pyrimidin-4-yl)pyrimidin-2-ylamine] | – |
| 0.1 to 10 | > 10 | > 10 | 0.1 to 10 | Nc1ccc(-c2nc(N3CCOCC3)nc3c2cnn3CC(=O)N2CCCC2)cn1 [Compound A196] | – |
| 0.1 to 10 | 0.1 to 10 | 0.1 to 10 | 0.1 to 10 | CN1CCN(C(=O)Cn2ncc3c(-c4cnc(N)nc4)nc(N4CCOCC4)nc32)CC1 [Compound A231] | – |

Second part, the molecule before the results:

| Structure (SMILES) | IC50 (PI3Kα) [µM] | IC50 (PI3Kβ) [µM] | IC50 (PI3Kγ) [µM] | IC50 (PI3Kδ) [µM] | IC50 (CK2 protein kinase) [µM] |
| --- | --- | --- | --- | --- | --- |
| Cn1ncc2c(-c3cccc(CO)c3)nc(N3CCOCC3)nc21 [Compound A33, [3-(1-methyl-6-morpholin-4-yl-1H-pyrazolo[3,4-d]pyrimidin-4-yl)phenyl]methanol] | 0.1 to 10 | 0.1 to 10 | 0.1 to 10 | 0.1 to 10 | – |
| Cn1ncc2c(-c3cccc(O)c3)nc(N3CCOCC3)nc21 [Compound A1, 3-(1-methyl-6-morpholin-4-yl-1H-pyrazolo[3,4-d]pyrimidin-4-yl)phenol] | 0.1 to 10 | 0.1 to 10 | 0.1 to 10 | 0.1 to 10 | – |
| Cn1ncc2c(-c3ccc(N)nc3)nc(N3CCOCC3)nc21 [Compound A193, 5-(1-methyl-6-morpholin-4-yl-1H-pyrazolo[3,4-d]pyrimidin-4-yl)pyridin-2-ylamine] | 0.1 to 10 | 0.1 to 10 | 0.1 to 10 | 0.1 to 10 | – |
| Cn1ncc2c(-c3ccc4cc[nH]c4c3)nc(N3CCOCC3)nc21 [Compound A65, 4-(1H-indol-6-yl)-1-methyl-6-morpholin-4-yl-1H-pyrazolo-[3,4-d]pyrimidine] | > 10 | > 10 | 0.1 to 10 | > 10 | – |
| Cn1ncc2c(-c3ccc4[nH]cnc4c3)nc(N3CCOCC3)nc21 [Compound A129, 4-(1H-benzimidazol-5-yl)-1-methyl-6-morpholin-4-yl-1H-pyrazolo[3,4-d]pyrimidine] | 0.1 to 10 | 0.1 to 10 | 0.1 to 10 | 0.1 to 10 | – |
| O=c1cc(N2CCOCC2)oc2c(-c3ccccc3)cccc12 [LY294002] | – | – | – | – | 5 to 10 |
| Cn1ncc2c(-c3cccc4[nH]ncc34)nc(N3CCOCC3)nc21 [Compound A161, 4-(1H-indazol-4-yl)-1-methyl-6-morpholin-4-yl-1H-pyrazolo-[3,4-d]pyrimidine] | 0.1 to 10 | 0.1 to 10 | 0.1 to 10 | 0.1 to 10 | – |
| Cn1ncc2c(-c3cccc4[nH]ccc34)nc(N3CCOCC3)nc21 [Compound A97, 4-(1H-indol-4-yl)-1-methyl-6-morpholin-4-yl-1H-pyrazolo[3,4-d]pyrimidine] | 0.1 to 10 | 0.1 to 10 | > 10 | 0.1 to 10 | – |
